# Source: US8729087B2, “Compositions and methods for inhibition of the JAK pathway” (Rigel Pharmaceuticals, Inc., priority 2006, dated 2014)
# Where two headings read alike, the source gives them in different places.
# Tests used:
# [1] = tested on: Human U937 monocytic cells; assay: U937 IFNγ ICAM1 FACS Assay; assay type: cell-based
# Source text: (§1) The activity of the compounds of the invention may additionally be characterized by assaying the effect of the 2,4-pyrimidinediamine compounds described herein on A549 lung epithelial cells and U937 cells. A549 lung epithelial cells and U937 cells up-regulate ICAM-1 (CD54) surface expression in response to a variety of different stimuli. Therefore, using ICAM-1 expression as readout, test compound effects on different signaling pathways can be assessed in the same cell type. Stimulation with IL-1β through the IL-1β receptor activates the TRAF6/NFκB pathway resulting in up-regulation of ICAM-1. IFNγ induces ICAM-1 up-regulation through activation of the JAK1/JAK2 pathway. The up-regulation of ICAM-1 can be quantified by flow cytometry across a compound dose curve and EC50 values are calculated. An exemplary assays of this type are described in greater detail in Examples 4 and 5.
# (§2) Human U937 monocytic cells up-regulate ICAM-1 (CD54) surface expression in response to a variety of different stimuli. Therefore, using ICAM-1 expression as readout, compound effects on different signaling pathways can be assessed in the same cell type. IFNγ up-regulates ICAM-1 through activation of the JAK/Stat pathway. In this example, the up-regulation of ICAM-1 by IFNγ was assessed.
# The U937 human monocytic cell line was obtained from ATCC of Rockville Md., catalog number CRL-1593.2, and cultured in RPM1-1640 medium containing 10% (v/v) FCS. U937 cells were grown in 10% RPMI. The cells were then plated at a concentration of 100,000 cells per 160 μL in 96 well flat bottom plates. The test compounds were then diluted as follows: 10 mM test compound was diluted 1:5 in DMSO (3 μL 10 mM test compound in 12 μL DMSO), followed by a 1:3 serial dilution of test compound in DMSO (6 μL test compound serially diluted into 12 μL DMSO to give 3-fold dilutions). Then 4 μL of test compound was transferred to 76 μL of 10% RPMI resulting in a 10× solution (100 μM test compound, 5% DMSO). For control wells, 4 μL of DMSO was diluted into 76 μL 10% RPMI.
# The assay was performed in duplicate with 8 points (8 3-fold dilution concentrations from […]) and with 4 wells of DMSO only (control wells) under stimulated conditions and 4 wells of DMSO only under unstimulated conditions.
# The diluted compound plate was mixed 2× using a multimek (Beckman Coulter of Brea, Calif.) and then 20 μL of the diluted compounds was transferred to the 96 well plate containing 160 μL of cells, which were then mixed again twice at low speeds. The cells and compounds were then pre-incubated for 30 minutes at 37° C. with 5% CO2.
# The 10× stimulation mix was made by preparing a 100 ng/mL solution of human IFNγ in 10% RPMI. The cells and compound were then stimulated with 20 μL of IFNγ stimulation mix to give a final concentration of 10 ng/mL IFNγ, 10 μM test compound, and 0.5% DMSO. The cells were kept under conditions for stimulation for 18-24 hours at 37° C. with 5% CO2.
# The cells were transferred to a 96 well round bottom plate for staining and then kept on ice for the duration of the staining procedure. Cells were spun down at 1000 rpm for 5 minutes at 4° C., following which the supernatant was removed. Following removal of the supernatant, 1 μL APC conjugated mouse anti-human ICAM-1 antibody was added per 100 μL FACS buffer. The cells were then incubated on ice in the dark for 30 minutes. Following incubation, 150 μL of FACS buffer was added and the cells were centrifuged at 1000 rpm for 5 minutes at 4° C., following which the supernatant was removed. After removal of the supernatant, 200 μL of FACS buffer was added and the cells were resuspended. After suspension, the cells were centrifuged at 1000 rpm for 5 min at 4° C. Supernatant was then removed prior to resuspension of the cells in 150 μL FACS buffer.
# Detection was performed using a BD LSR I System Flow Cytometer, purchased from BD Biosciences of San Jose, Calif. […]
# [2] = tested on: A549 lung epithelial cells; assay: A549 Epithelial Line Stimulated with IFNγ (ICAM-1 surface expression, FACS); assay type: cell-based, human; conditions: IFNγ 75 ng/mL, 24 hours, ICAM-1 (CD54) surface expression by flow cytometry; read-out: Example 4 (IC50, A549 epithelial line stimulated with IFNγ)
# Source text: as §1
# as §2, with “A549 lung epithelial” for “Human U937 monocytic”
# The A549 lung epithelial carcinoma cell line originated from the American Type Culture Collection. Routine culturing was with F12K media (Mediatech Inc., Lenexa, Kans., Cat. No. 10-025-CV) with 10% fetal bovine serum, 100 I.U. penicillin and […] streptomycin (complete F12k media). Cells were incubated in a humidified atmosphere of 5% CO2 at 37° C. Prior to use in the assay, A549 cells were washed with PBS and trypsinized (Mediatech Inc., Cat. No. 25-052-CI) to lift the cells. The trypsin cell suspension was neutralized with complete F12K media and centrifuged to pellet the cells. The cell pellet was resuspended in complete F12K media at a concentration of 2.0×10^5/mL. Cells were seeded at 20,000 per well, 100 μL total volume, in a flat bottom tissue culture plate and allowed to adhere overnight.
# On day two, A549 cells were pre-incubated with a 2,4-pyrimidinediamine test compound or DMSO (control) (Sigma-Aldrich, St. Louis, Mo., Catalog No. D2650) for 1 hour. The cells were then stimulated with IFNγ (75 ng/mL) (Peprotech Inc., Rocky Hill, N.J., Cat. No. 300-02) and allowed to incubate for 24 hours. The final test compound dose range was 30 μM to 14 nM in 200 μL F12K media containing 5% FBS, 0.3% DMSO.
# On day three, the cell media was removed and the cells were washed with 200 μL PBS (phosphate buffered saline). Each well was trypsinized to dissociate the cells, then neutralized by addition of 200 μL complete F12K media. Cells were pelleted and stained with an APC conjugated mouse anti-human ICAM-1 (CD54) (BD Pharmingen, San Diego, Calif., Catalog #559771) antibody for 20 minutes at 4° C. Cells were washed with ice cold FACS buffer (PBS+2% FBS) and surface ICAM-1 expression was analyzed by flow cytometry. Detection was performed using a BD LSR I System Flow Cytometer, purchased from BD Biosciences of San Jose, Calif. Events were gated for live scatter and the geometric mean was calculated (Becton-Dickinson CellQuest software version 3.3, Franklin Lakes, N.J.). Geometric means were plotted against the compound concentration to generate a dose response curve.
# [3] = IFNγ 10 ng/mL, 18-24 hours, ICAM-1 expression by flow cytometry, read-out: Example 5 (IC50, U937 IFNγ ICAM1 FACS assay)
# [4] = Homo sapiens, U-937, IFNγ 10 ng/mL, 18-24 hours, ICAM-1 expression by flow cytometry, read-out: Example 5 (IC50, U937 IFNγ ICAM1 FACS assay)
Compound,"IC50 [1, 3]",IC50 [2],further results
"CCS(=O)(=O)NCc1ccc(Nc2nc(Nc3ccc(CS(=O)(=O)NC)cc3)ncc2C)cc1 [Compound I-2, N4-(4-ethylsulfonylaminomethyl)phenyl-5-methyl-N2-(4-methylaminosulfonylmethyl)phenyl-2,4-pyrimidinediamine]",0.133 µM,1.74 µM,
"CC1(C)Oc2cc(Nc3nc(Nc4cccc(CS(N)(=O)=O)c4)ncc3F)cnc2NC1=O [IV-1, N2-[3-(Aminosulfonylmethylene)phenyl]-N4-[2,2-dimethyl-3-oxo-4H-pyrid[1,4]oxazin-7-yl]-5-fluoro-2,4-pyrimidinediamine]",18.6 µM,,
"Cc1cnc(Nc2ccc(CNS(=O)(=O)C3CC3)cc2)nc1Nc1ccc(CNS(=O)(=O)C2CC2)cc1 [II-1, N2,N4-bis(4-cyclopropylsulfonylaminomethyl)phenyl-5-methyl-2,4-pyrimidinediamine]",0.0713 µM,6.23 µM,
"Cc1cnc(Nc2ccc(CCNS(=O)(=O)C3CC3)cc2)nc1Nc1ccc(CCNS(=O)(=O)C2CC2)cc1 [II-2, N2,N4-bis[4-(2-cyclopropylsulfonylamino)ethyl]phenyl-5-methyl-2,4-pyrimidine diamine]",0.991 µM,,
"CCS(=O)(=O)NCc1ccc(Nc2nc(Nc3ccc(CS(=O)(=O)NC)cc3)ncc2F)cc1 [Compound I-10, N4-(4-ethylsulfonylaminomethyl)phenyl-5-fluoro-N2-(4-methylaminosulfonylmethyl)phenyl-2,4-pyrimidinediamine]",0.469 µM,,
"CN1C(=O)C(C)(C)Oc2cc(Nc3nc(Nc4cccc(CS(N)(=O)=O)c4)ncc3F)cnc21 [IV-2, N2-[3-(Aminosulfonylmethylene)phenyl]-N4-[2,2-dimethyl-3-oxo-4-methyl-pyrid[1,4]oxazin-7-yl]-5-fluoro-2,4-pyrimidinediamine]",,3.5 µM,
"C#CCOc1ccc(Nc2nc(Nc3ccc4c(c3)CN(S(N)(=O)=O)CC4)ncc2F)cc1 [III-4, N2-(2-Aminosulfonyl-1,2,3,4-tetrahydroisoquinolin-7-yl)-N4-(4-(prop-2-ynyloxy)phenyl)-5-fluoro-2,4-pyrimidinediamine]",,,"IC50 ([1]; Homo sapiens, U-937, read-out: Example 5 (IC50, U937 IFNγ ICAM1 FACS assay)): 0.462 µM"
"N#CCOc1ccc(Nc2nc(Nc3cccc(CS(N)(=O)=O)c3)ncc2F)cc1 [Compound I-1, N2-[3-(Aminosulfonylmethylene)phenyl]-5-fluoro-N4-(4-cyanomethyleneoxyphenyl)-2,4-pyrimidinediamine]",0.554 µM,3.07 µM,
"COc1cc(Nc2nc(Nc3ccc4c(c3)CN(S(N)(=O)=O)CC4)ncc2F)ccc1Cl [III-1, N2-(2-Aminosulfonyl-1,2,3,4-tetrahydroisoquinolin-7-yl)-N4-(4-chloro-3-methoxyphenyl)-5-fluoro-2,4-pyrimidinediamine]",,,"IC50 [1, 4]: 1.08 µM"
"NS(=O)(=O)N1CCc2ccc(Nc3ncc(F)c(Nc4ccc(CNS(=O)(=O)C5CC5)cc4)n3)cc2C1 [III-2, N2-(2-Aminosulfonyl-1,2,3,4-tetrahydroisoquinolin-7-yl)-N4-[4-(cyclopropylsulfonylaminomethyl)phenyl]-5-fluoro-2,4-pyrimidinediamine]",,,"IC50 [1, 4]: 0.164 µM"
"CNS(=O)(=O)Cc1ccc(Nc2ncc(F)c(Nc3ccc(CNS(=O)(=O)C4CC4)cc3)n2)cc1 [Compound I-8, N4-(4-cyclopropylsulfonylaminomethyl)phenyl-5-fluoro-N2-(4-methylaminosulfonylmethyl)phenyl-2,4-pyrimidinediamine]",0.347 µM,3.89 µM,
"Cc1cnc(Nc2ccc(S(N)(=O)=O)cc2)nc1Nc1ccc2c(c1)C(NS(C)(=O)=O)CC2 (racemic) [VI-2, (+/−)-N2-(4-Aminosulfonylphenyl)-5-methyl-N4-[1-(methylsulfonyl)aminoindan-6-yl]-2,4-pyrimidinediamine]",,,"IC50 [1, 4]: 2.58 µM"
